Assay [1] concerns Porphymonas gingivalis. As to the kind of experiment: MIC microdilution assay. Format: cell-based. To be noted: for MIC of Goldenseal Alkaloids Against Selected Oral Pathogens: Pg; for MIC: Porphyromonas gingivalis. Background: Broth dilution looks for growth in wells or tubes with falling amounts of substance.
Assay [2] relates to Streptococcus gordonii. As to the kind of experiment: MIC microdilution assay. Particulars: for MIC of Goldenseal Alkaloids Against Selected Oral Pathogens: Sg; for MIC: Streptococcus gordonii. It counts as cell-based.
For assay [3], the system named is Streptococcus mutans. As to the kind of experiment: MIC microdilution assay. Format: cell-based. To be noted: for MIC of Goldenseal Alkaloids Against Selected Oral Pathogens: Sm; for MIC: Streptococcus mutans.
The subject of assay [4] is Fusobacterium nucleatum. Nature of the assay: MIC microdilution assay. Format: cell-based. To be noted: for MIC of Goldenseal Alkaloids Against Selected Oral Pathogens: Fn; for MIC: Fusobacterium nucleatum.
The test system of assay [5] is Actinobacillus actinomycetemcomitans. As to the kind of experiment: MIC microdilution assay. It counts as cell-based. Particulars: for MIC of Goldenseal Alkaloids Against Selected Oral Pathogens: Aa; for MIC: Aggregatibacter actinomycetemcomitans.
For assay [6], the system named is S. aureus, E. coli, P. aeruginosa, and S. sanguis. To be noted: isolated from H. canadensis; cited from earlier work.
In assay [7] the test system is test bacteria. Nature of the assay: MIC microdilution assay, statements on all test bacteria. Format: cell-based. Particulars: read-out: Concentration without growth inhibition of the test bacteria (MIC bound).
In assay [8] the test system is Escherichia coli. As to the kind of experiment: MIC microdilution assay. Format: cell-based. To be noted: E. coli, agent alone, read-out: MIC of the antimicrobial agents alone.
Assay [9] has as its system Streptococcus mutans. Nature of the assay: Combination determination (FIC, MIC in combination). It counts as cell-based. Particulars: S. mutans; berberine (B-CG) combined with CHX, Tet or Dox; MIC of the named agent in the combination. As for the experimental part: (§1) The alkaloids were tested in pair-wise combinations (fractional inhibitory concentrations, FIC) against all the bacteria to determine whether interactions were antagonistic (FIC>1), additive (0.5<FIC<1), or synergistic (FIC<0.5). The FIC was calculated by the following: (MIC Acombination/MIC Aalone)+(MIC Bcombination/MIC Balone). Where A represents compound 1 and B represents compound 2. […] In the case of A. actinomycetemcomitans and P. aeruginosa, CHX was used at 0.78 to 50 μg ml^−1. Berberine (B-CG and B-S) was used at concentrations 0.9 to 250 μg ml^−1. The antibacterial efficacy of berberine (1.95 to 500 μg ml^−1) was tested in combination against P. aeruginosa with CHX (0.78 to 50 μg ml^−1) (Sigma Chemicals) and the polymyxin antibiotic Col (0.04 to 25 μg ml^−1) (Sigma Chemicals). The plates were incubated for 24 hours.
CHX was diluted from left to right at 10 to 0.08 μg ml^−1 ([…] 1 to 8), berberine was diluted from top to bottom at 250 to 0.09 μg ml^−1 ([…] 1 to 8). Column 9 was the cell control, column 10 was berberine alone (250 to 0.09 μg ml^−1); and column 11 was CHX alone (10 to 0.08 μg ml^−1). Row H was the solvent control (8% DMSO, H1 to H8). Column 12 was the media blank. The dilution assay was designed such that A1 contained the highest concentration of both agents (berberine 250 μg ml^−1 and CHX 10 μg ml^−1). The final concentration of berberine in wells A2 to A8 was […]. The FIC value was calculated from well C6. FIC was calculated by: (MIC Acombination/MIC Aalone)+(MIC Bcombination/MIC Balone).

Assay [10] deals with Actinobacillus actinomycetemcomitans. The description is as above. Format: cell-based. Particulars: A. actinomycetemcomitans grown under anaerobic conditions; berberine (B-CG) combined with CHX, Tet or Dox; MIC of the named agent in the combination. As for the experimental part: as §1
In assay [11] the test system is Streptococcus gordonii. The assay is described as above. It counts as cell-based. To be noted: S. gordonii; berberine (B-CG) combined with CHX, Tet or Dox; MIC of the named agent in the combination. As for the experimental part: as §1
Assay [12] concerns Staphylococcus aureus. The assay is described as above. It counts as cell-based. To be noted: S. aureus. On the procedure: as §1
Assay [13] concerns Fusobacterium nucleatum. The assay is described as above. It counts as cell-based. To be noted: F. nucleatum; berberine (B-CG) combined with CHX, Tet or Dox; MIC of the named agent in the combination. As for the experimental part:
as §1

Assay [14] has as its system Porphymonas gingivalis. The assay is described as above. Format: cell-based. Particulars: P. gingivalis; berberine (B-CG) combined with CHX, Tet or Dox; MIC of the named agent in the combination. As for the experimental part: as §1
In assay [15] the test system is Escherichia coli. The description is as above. To be noted: E. coli. Format: cell-based. On the procedure: as §1
Assay [16] concerns oral pathogens. Nature of the assay: Combination determination, statements on the oral pathogens. Particulars: berberine hydrochloride / berberine (B-CG and B-S). It counts as cell-based. On the procedure:
as §1

In assay [17] the test system is Staphylococcus aureus. As to the kind of experiment: MIC microdilution assay. It counts as cell-based. Particulars: S. aureus, agent alone, read-out: MIC of the antimicrobial agents alone.
Assay [18] concerns Pseudomonas aeruginosa. Nature of the assay: MIC microdilution assay. To be noted: P. aeruginosa; agent alone. Format: cell-based.
Assay [19] concerns Pseudomonas aeruginosa. Nature of the assay: Combination determination (FIC, MIC in combination). Format: cell-based. Particulars: P. aeruginosa. As for the experimental part: as §1
Setting [20] is: read-out: MIC of Goldenseal Alkaloids Against Selected Oral Pathogens.
Where [21] appears, read: berberine (B-CG) combined with CHX, Tet or Dox, MIC of the named agent in the combination.
Setting [22] is: berberine hydrochloride / chloride.

Counter-ions that a name gives are not always drawn. Like-named read-outs stand apart in the source and are kept apart here. Marks after values point to notes of the source that are not given here.

With `COc1ccc(C[C@@H]2c3cc4c(cc3CCN2C)OCO4)c(C=O)c1OC` [Canadaline, canadaline], the “MIC of Goldenseal Alkaloids Against Selected Oral Pathogens” value in assay [1] (P. gingivalis), in [2] (S. gordonii), in [3] (S. mutans), in [4] (F. nucleatum) and in assay [5] (A. actinomycetemcomitans) was above 250 µg/mL each time. Further, in assay [6], the Antibacterial activity entry is “antimicrobial at comparable concentrations to berberine”.
With `COc1ccc2c(c1OC)CN1CCc3cc4c(cc3[C@@H]1C2)OCO4` [Canadine, canadine], the MIC in [1] (setting [20]) is above 500 µg/mL; in [2] (setting [20]) it was above 500 µg/mL; in assay [3] (setting [20]) it was above 500 µg/mL; in [4] (setting [20]) it was above 500 µg/mL; in [7], above 250 µg/mL; in assay [5] (setting [20]), above 500 µg/mL. Also, the Antibacterial activity entry in [6] is recorded as “antimicrobial at comparable concentrations to berberine”.
Consider `COc1ccc2c(c1OC)C(=O)O[C@@H]2[C@H]1c2cc3c(cc2CCN1C)OCO3` [Hydrastine, hydrastine], for which the MIC in [1] (setting [20]), in assay [2] (setting [20]), in assay [3] (setting [20]), in assay [4] (setting [20]), in [7] and in [5] (setting [20]) was above 500 µg/mL in each case.
`COc1cc2c(cc1O)[C@@H]1Cc3ccc(OC)c(OC)c3CN1CC2` [Isocorypalamine, isocorypalmine]: the “MIC of Goldenseal Alkaloids Against Selected Oral Pathogens” value in [1] (P. gingivalis), in [2] (S. gordonii), in assay [3] (S. mutans), in assay [4] (F. nucleatum) and in [5] (A. actinomycetemcomitans) was above 125 µg/mL each time.
Turning to `CN(C)[C@@H]1C(O)=C(C(N)=O)C(=O)[C@@]2(O)C(O)=C3C(=O)c4c(O)cccc4[C@@](C)(O)[C@H]3C[C@@H]12` [Tet, tetracycline HCl], the MIC in [1] (P. gingivalis, agent alone, read-out: MIC of the antimicrobial agents alone) was 0.08 µg/mL; in [2] (S. gordonii, agent alone, read-out: MIC of the antimicrobial agents alone) it was 0.31 µg/mL; in [3] (S. mutans, agent alone, read-out: MIC of the antimicrobial agents alone), 1.56 µg/mL; in assay [8] it was 3.06 µg/mL; in [4] (F. nucleatum, agent alone, read-out: MIC of the antimicrobial agents alone), 0.16 µg/mL; in assay [5] (A. actinomycetemcomitans grown under anaerobic conditions, agent alone, read-out: MIC of the antimicrobial agents alone), 25 µg/mL. For the same molecule, the MIC in [17] amounted to 1.53 µg/mL. The “MIC of the antimicrobial agents in combination” value (shortened to “MIC … in combination”) in assay [9] is 0.20 µg/mL; in assay [10] it was 12.5** μg ml^−1; in [11], 0.08 µg/mL; in [12] (setting [21]), 0.39 µg/mL; in assay [13] it was 0.02 µg/mL; in assay [14] it was 0.01 µg/mL. Besides, in assay [15] (setting [21]), the “MIC … in combination” value worked out at 1.53 µg/mL. Moreover, the “Growth inhibition effect when combined with berberine” value in [12] (setting [22]), in [15] (setting [22]) and in [16] was “synergistic” throughout.
For the molecule `COc1ccc2cc3[n+](cc2c1O)CCc1cc2c(cc1-3)OCO2` [berberrubine], the MIC in [1] (P. gingivalis, comparable to berberine, read-out: MIC) was 17 µg/mL; in [3] (S. mutans, growth limited but not inhibited at lower concentrations, text b118, read-out: Concentration without growth inhibition (MIC bound)), above 300 µg/mL; in assay [5] (A. actinomycetemcomitans, read-out: Concentration without growth inhibition (MIC bound)), above 300 µg/mL. Further, in [3] (S. mutans, growth hindered, but not inhibited at lower concentrations), the “Concentration without growth inhibition (MIC bound)” value is “greater than 300 μml^−1”. In assay [5] (A. actinomycetecomitans), the “Concentration without antimicrobial activity (MIC bound)” value is at least 300 μml^−1.
On to `COc1ccc2c(c1OC)C(=O)O[C@@H]2[C@H]1c2cc3c(cc2CCN1C)OCO3` [β-hydrastine], for which the Antibacterial activity entry in assay [6] is “inactive against all the tested organisms”.
For colistin sulfate, the “MIC of the antimicrobial agents alone” value in assay [18] is 3.13 µg/mL. In addition, in assay [19], the “Interaction when combined with berberine” value is given as “no clear additive or synergistic effect”. Besides, the “MIC … in combination” value in assay [19] (berberine combined with CHX or Col, MIC of the named agent in the combination) is 1.56 µg/mL.

Values taken from patent US20070098649A1, “Method and composition for controlling oral pathogens” (priority 2004, published 2007).
